The text below walks through data of patent US10308620B2, “Muscarinic M1 receptor positive allosteric modulators” (SUVEN LIFE SCIENCES LIMITED, priority 2015, dated 2019).

Data set [1] has as its target recombinant human Muscarinic M1 receptor (Homo sapiens (Human), UniProt P11229). Description: Allosteric potency EC50, CHO cells with pCRE-Luc reporter, in presence of EC20 of acetylcholine. The format is cell-based. To be noted: 4 hours. As to the method: Determination of Allosteric Potency EC50 Values for Muscarinic M1 Receptor:
A stable CHO cell line expressing recombinant human Muscarinic M1 receptor and pCRE-Luc reporter system was used for cell-based assay. The assay offers a non-radioactive based approach to determine binding of a compound to GPCRs. In this specific assay, the level of intracellular cyclic AMP which is modulated by activation or inhibition of the receptor is measured. The recombinant cells harbor luciferase reporter gene under the control of cAMP response element.
The above cells were grown in 96 well clear bottom white plates in Hams F12 medium containing 10% fetal bovine serum (FBS). Prior to the addition of compounds or standard agonist, cells were serum starved overnight. Increasing concentrations of test compounds were added along with EC20 of acetylcholine in OptiMEM medium to the cells. The incubation was continued at 37° C. in CO2 incubator for 4 hours. Medium was removed and cells were washed with phosphate buffered saline. The cells were lysed and luciferase activity was measured in a Luminometer. Luminescence units were plotted against the compound concentrations using Graphpad software. EC50 values of the compounds were defined as the concentration required in stimulating the luciferase activity by 50% in presence of EC20 of acetylcholine.

The nature of data set [2]: Rodent pharmacokinetic study. The format is in vivo, rat. To be noted: male Wistar rats; for clearance / half-life / Vd / Cmax / Tmax / bioavailability: rat, plasma; for Vd: read-out: Vz; for bioavailability: 3 mg/kg oral vs 1 mg/kg i.v. As to the method: Rodent Pharmacokinetic Study
Male Wistar rats (260±50 grams) were used as experimental animals. Animals were housed individually in polypropylene cage. Two days prior to study, male Wistar rats were anesthetized with isoflurane for surgical placement of jugular vein catheter. Rats were randomly divided for oral (3 mg/kg) and intravenous (1 mg/kg) dosing (n=3/group) and fasted overnight before oral dosing (p.o.). However, rats allocated to intravenous (i.v.) dosing food and water was provided ad libitum.
At pre-determined point, blood was collected through jugular vein and replenished with an equivalent volume of normal saline. Collected blood was transferred into a labeled eppendorf tube containing 10 μL of heparin as an anticoagulant. Typically blood samples were collected at following time points: 0.08, 0.25, 0.5, 1, 2, 4, 6, 8, and 24 hours post dose. Blood was centrifuged at 4000 rpm for 10 minutes. Plasma was separated and stored frozen at −80° C. until analysis. The concentrations of the test compounds were quantified in plasma by qualified LC-MS/MS method using suitable extraction technique. The test compounds were quantified in the calibration range around 1-1000 ng/mL in plasma. Study samples were analyzed using calibration samples in the batch and quality control samples spread across the batch.
Pharmacokinetic parameters Cmax, Tmax, AUCt, T1/2, clearance, Vz and bioavailability were calculated by non-compartmental model using standard non-compartmental model by using Phoenix WinNonlin 6.0.2 or 6.0.3 version Software package.

Structures can show the parent of a compound that is named as a salt.

Chain of recombinant human Muscarinic M1 receptor (P11229 whole entry): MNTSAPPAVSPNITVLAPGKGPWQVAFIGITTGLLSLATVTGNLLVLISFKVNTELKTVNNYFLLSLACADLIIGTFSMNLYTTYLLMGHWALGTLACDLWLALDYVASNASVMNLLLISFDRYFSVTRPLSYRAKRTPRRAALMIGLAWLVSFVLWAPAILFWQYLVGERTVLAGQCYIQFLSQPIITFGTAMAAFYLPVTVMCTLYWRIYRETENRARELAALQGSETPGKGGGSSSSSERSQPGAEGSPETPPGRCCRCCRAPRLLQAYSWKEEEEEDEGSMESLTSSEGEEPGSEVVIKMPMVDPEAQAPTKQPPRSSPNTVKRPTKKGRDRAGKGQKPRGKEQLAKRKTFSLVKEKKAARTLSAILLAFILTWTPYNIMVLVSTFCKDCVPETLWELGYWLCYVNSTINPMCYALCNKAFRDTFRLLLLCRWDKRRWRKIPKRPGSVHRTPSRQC

Regarding `O=C(N[C@H]1CCCC[C@@H]1O)C1=CN(Cc2cccnc2)c2ccccc2O1` [Example 22, N-(cis-1S,2S-2-Hydroxycyclohexyl)-4-(pyridin-3-ylmethyl)-4H-benzo[1,4]oxazine-2-carboxamide], the EC50 in data set [1] worked out at 353 nM.

In the case of `O=C(N[C@H]1CCCC[C@@H]1O)C1=CN(Cc2ccccc2)c2ccccc2[S+]1[O-]` (stereo partly drawn) [Example 94, N-(cis-1S,2S-2-Hydroxycyclohexyl)-4-benzyl-1-oxo-4H-benzo[1,4]thiazine-2-carboxamide], the EC50 in data set [1] worked out at 1400 nM.

For `O=C(N[C@H]1CCCC[C@@H]1O)C1=CN(Cc2ccnc(Cl)c2)c2cccc(F)c2O1` [Example 54, N-(cis-1S,2S-2-Hydroxycyclohexyl)-4-(2-chloropyridin-4-ylmethyl)-8-fluoro-4H-benzo[1,4]oxazine-2-carboxamide], in data set [1], the EC50 came to 88 nM.

As to `O=C(N[C@H]1CCCC[C@@H]1O)C1=CN(Cc2ccnc(-c3ccccc3)c2)c2cccc(F)c2O1` [Example 53, N-(cis-1S,2S-2-Hydroxycyclohexyl)-4-(2-phenylpyridin-4-ylmethyl)-8-fluoro-4H-benzo[1,4]oxazine-2-carboxamide], the 50% effective concentration (EC50) in data set [1] turned out to be 230 nM.

`O=C(N[C@H]1CCCC[C@@H]1O)C1=CN(Cc2ccccc2)c2cccc(F)c2O1` [Example 48, N-(cis-1S,2S-2-Hydroxycyclohexyl)-4-benzyl-8-fluoro-4H-benzo[1,4]oxazine-2-carboxamide]: the EC50 in data set [1] is 143 nM.

For `O=C(Nc1ccccc1CO)C1=CN(Cc2ccccc2F)c2cccc(F)c2O1` [Example 46, N-(2-Hydroxymethylphenyl)-4-(2-fluorobenzyl)-8-fluoro-4H-benzo[1,4]oxazine-2-carboxamide], the EC50 in data set [1] was 1080 nM.

Take `O=C(N[C@@H]1CCC[C@H]1O)C1=CN(Cc2ccccc2F)c2ccccc2O1` [Example 40, N-(trans-1R,2R-2-Hydroxycyclopentyl)-4-(2-fluorobenzyl)-4H-benzo[1,4]oxazine-2-carboxamide]: the EC50 in data set [1] is 1530 nM.

For `O=C(N[C@H]1CCCC[C@@H]1O)C1=CN(Cc2cccc(F)c2F)c2ccccc2S1` [Example 85, N-(cis-1S,2S-2-Hydroxycyclohexyl)-4-(2,3-difluorobenzyl)-4H-benzo[1,4]thiazine-2-carboxamide], the EC50 in data set [1] came out at 117 nM.

With `COc1cc(CN2C=C(C(=O)NCC(C)(C)O)Oc3ccccc32)ccn1` [Example 12, N-(2-Hydroxy-2-methylpropyl)-4-(2-methoxypyridin-4-ylmethyl)-4H-benzo[1,4]oxazine-2-carboxamide], in data set [1], the concentration for a half-maximal effect (EC50) was 1510 nM.

As for `CC(C)C(CO)NC(=O)C1=CN(Cc2ccccc2F)c2cccc(F)c2O1` (stereo not drawn) [Example 47, N-(1-Hydroxymethyl-2-methylpropyl)-4-(2-fluorobenzyl)-8-fluoro-4H-benzo[1,4]oxazine-2-carboxamide], the EC50 in data set [1] stood at 1320 nM.

As to `O=C(N[C@H]1CCCC[C@@H]1O)C1=CN(Cc2ccc(Cl)cc2Cl)c2ccccc2O1` [Example 28, N-(cis-1S, 2S-2-Hydroxycyclohexyl)-4-(2,4-dichlorobenzyl)-4H-benzo[1,4]oxazine-2-carboxamide], the EC50 in data set [1] was 250 nM.

Regarding `COc1ccc(CN2C=C(C(=O)N[C@H]3CCCC[C@@H]3O)Sc3ccccc32)cc1` [Example 88, N-(cis-1S,2S-2-Hydroxycyclohexyl)-4-{4-methoxybenzyl}-4H-benzo[1,4]thiazine-2-carboxamide], the EC50 in data set [1] turned out to be 145 nM.

In the case of `O=C(N[C@H]1CCCC[C@@H]1O)C1=CN(Cc2ccc(Cl)nc2)c2ccccc2[S+]1[O-]` (stereo partly drawn) [Example 97, N-(cis-1S, 2S-2-Hydroxycyclohexyl)-4-{2-chloropyridin-5-ylmethyl}-1-oxo-4H-benzo[1,4]thiazine-2-carboxamide], the EC50 in data set [1] came to 1060 nM.

Consider `O=C(N[C@H]1CCCC[C@@H]1O)C1=CN(Cc2ccc(Cl)c(Cl)c2)c2ccccc2O1` [Example 26, N-(cis-1S, 2S-2-Hydroxycyclohexyl)-4-(3,4-dichlorobenzyl)-4H-benzo[1,4]oxazine-2-carboxamide], for which the EC50 in data set [1] worked out at 159 nM.

`O=C(N[C@H]1CCCC[C@@H]1O)C1=CN(Cc2ccccn2)c2ccccc2S1` [Example 92, N-(cis-1S,2S-2-Hydroxycyclohexyl)-4-{pyridin-2-ylmethyl}-4H-benzo[1,4]thiazine-2-carboxamide] gave an AUC0-t in data set [2] (1 mg/kg i.v. (bolus)) of 262 ± 50 ng·h/mL. Further, in data set [2] (3 mg/kg oral (gavage)), the AUC0-t amounted to 255 ± 32 ng·h/mL, the Cmax amounted to 195 ± 22 ng/mL, the Tmax is 0.33 ± 0.14 h and the half-life is 1.7 ± 1 h. Also, in data set [2] (iv, 1 mg/kg i.v. (bolus)), the clearance was 64 ± 11 mL/min/kg, the half-life is 0.8 ± 0.2 h and the Vd turned out to be 4.2 ± 0.7 L/kg. The molecule also gave a bioavailability in data set [2] of 32 ± 4%. In addition, in data set [1], the EC50 was determined as 1470 nM.

Turning to `O=C(NC1CCNCC1F)C1=CN(Cc2cccc(F)c2F)c2cccc(F)c2O1` (stereo not drawn) [Example 74, N-(3-Fluoropiperidin-4-yl)-4-(2,3-difluorobenzyl)-8-fluoro-4H-benzo[1,4]oxazine-2-carboxamide hydrochloride], the EC50 in data set [1] was determined as 2100 nM.

As for `O=C(N[C@H]1CCCC[C@@H]1O)C1=CN(Cc2ccccc2)c2ccccc2S1` [Example 87, N-(cis-1S,2S-2-Hydroxycyclohexyl)-4-benzyl-4H-benzo[1,4]thiazine-2-carboxamide], the EC50 in data set [1] is 131 nM.

Take `O=C(NC1CCNCC1O)C1=CN(Cc2ccccc2F)c2ccccc2O1` (stereo not drawn) [Example 76, N-(3-Hydroxypiperidin-4-yl)-4-(2-fluorobenzyl)-4H-benzo[1,4]oxazine-2-carboxamide trifluoroacetate]: the EC50 in data set [1] came out at 412 nM.

`CC(C)(O)CNC(=O)C1=CN(Cc2cccc(F)c2)c2ccccc2O1` [Example 8, N-(2-Hydroxy-2-methylpropyl)-4-(3-fluorobenzyl)-4H-benzo[1,4]oxazine-2-carboxamide]: in data set [1], the EC50 turned out to be 2890 nM.

As to `O=C(N[C@H]1CCCC[C@@H]1O)C1=CN(Cc2ccc(F)c(F)c2)c2ccccc2O1` [Example 19, N-(cis-1S,2S-2-Hydroxycyclohexyl)-4-(3,4-difluorobenzyl)-4H-benzo[1,4]oxazine-2-carboxamide], in data set [2] (1 mg/kg i.v. (bolus)), the AUC0-t came to 1240 ± 84 ng·h/mL. Besides, in data set [2] (3 mg/kg oral (gavage)), the AUC0-t worked out at 2490 ± 223 ng·h/mL, the concentration peaked (Cmax) at 252 ± 17 ng/mL, the Tmax came out at 1.67 ± 0.6 h and the half-life is 3.7 ± 0.1 h. In addition, in data set [2] (iv, 1 mg/kg i.v. (bolus)), the clearance stood at 13 ± 1 mL/min/kg, the half-life is 3.8 ± 0.5 h and the Vd was determined as 4.4 ± 0.2 L/kg. This molecule registered a bioavailability in data set [2] of 67 ± 6%. The EC50 in data set [1] stood at 120 nM.

For `O=C(Nc1ccccc1CO)C1=CN(Cc2cccc(F)c2F)c2cccc(F)c2O1` [Example 44, N-(2-Hydroxymethylphenyl)-4-(2,3-difluorobenzyl)-8-fluoro-4H-benzo[1,4]oxazine-2-carboxamide], the EC50 in data set [1] came to 1280 nM.

Consider `O=C(N[C@H]1CCCC[C@@H]1O)C1=CN(Cc2ccncc2)c2cccc(F)c2O1` [Example 57, N-(cis-1S,2S-2-Hydroxycyclohexyl)-4-(pyridin-4-ylmethyl)-8-fluoro-4H-benzo[1,4]oxazine-2-carboxamide], for which the EC50 in data set [1] turned out to be 179 nM.

For `O=C(N[C@H]1CCCC[C@@H]1O)C1=CN(Cc2cccc(F)c2)c2cccnc2O1` [Example 36, N-(cis-1S,2S-2-Hydroxycyclohexyl)-1-(3-fluorobenzyl)-1H-pyrido[2,3-b][1,4]oxazine-3-carboxamide], in data set [1], the EC50 was found to be 1540 nM.

Regarding `O=C(N[C@@H]1CCC[C@H]1O)C1=CN(Cc2cccc(F)c2F)c2cccc(F)c2O1` [Example 42, N-(trans-1R,2R-2-Hydroxycyclopentyl)-4-(2,3-difluorobenzyl)-8-fluoro-4H-benzo[1,4]oxazine-2-carboxamide], the EC50 in data set [1] turned out to be 686 nM.

As for `O=C(N[C@H]1CCCC[C@@H]1O)C1=CN(Cc2ccccc2Cl)c2cccc(F)c2O1` [Example 38, N-(cis-1S, 2S-2-Hydroxycyclohexyl)-4-(2-chlorobenzyl)-8-fluoro-4H-benzo[1,4]oxazine-2-carboxamide], the EC50 in data set [1] came to 262 nM.

For `O=C(N[C@H]1CCCC[C@@H]1O)C1=CN(Cc2ccccc2C(F)(F)F)c2ccccc2O1` [Example 37, N-(cis-1S, 2S-2-Hydroxycyclohexyl)-4-(2-trifluoromethylbenzyl)-4H-benzo[1,4]oxazine-2-carboxamide], the EC50 in data set [1] was found to be 534 nM.

Consider `O=C(N[C@H]1CCCC[C@@H]1O)C1=CN(Cc2ccccc2Cl)c2ccccc2O1` [Example 41, N-(cis-1S, 2S-2-Hydroxycyclohexyl)-4-(2-chlorobenzyl)-4H-benzo[1,4]oxazine-2-carboxamide], for which the EC50 in data set [1] was 168 nM.

A word on the EC50: it is the concentration at which the effect is half-maximal. In general, clearance refers to the rate of elimination divided by the concentration. A low value points to inefficient removal. As a reminder, the half-life is how long it takes for the measured level to halve. One may read the Cmax as the peak of the concentration-time curve. By Tmax is commonly meant the time from dosing to the highest level. Broadly, the bioavailability is dose-corrected exposure relative to a reference, in per cent.
